In PubChem BioAssay (NCI):
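At the GI50, growth is halved. TGI: concentration producing complete growth inhibition.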

Key:
Assay in all cases: DTP human tumour cell line panel, 384-well format
[1] = system: 786-0 renal
[2] = system: A498 renal
[3] = system: ACHN renal
[4] = system: BT-549 breast
[5] = system: CAKI-1 renal
[6] = system: DU-145 prostate
[7] = system: EKVX NSCLC
[8] = system: HCC-2998 colon
[9] = system: HCT-116 colon
[10] = system: HCT-15 colon
[11] = system: HL-60(TB) leukemia
[12] = system: HOP-62 NSCLC
[13] = system: HOP-92 NSCLC
[14] = system: HS 578T breast
[15] = system: HT29 colon
[16] = system: IGROV1 ovarian
[17] = system: K-562 leukemia
[18] = system: KM12 colon
[19] = system: LOX IMVI melanoma
[20] = system: M14 melanoma
[21] = system: MALME-3M melanoma
[22] = system: MCF7 breast
[23] = system: MDA-MB-231 breast
[24] = system: MDA-MB-435 melanoma
[25] = system: MDA-MB-468 breast
[26] = system: MOLT-4 leukemia
[27] = system: NCI-H226 lung
[28] = system: NCI-H23 lung
[29] = system: NCI-H322M lung
[30] = system: NCI-H460 NSCLC
[31] = system: NCI-H522 lung
[32] = system: NCI/ADR-RES ovarian
[33] = system: OVCAR-4 ovarian
[34] = system: OVCAR-5 ovarian
[35] = system: OVCAR-8 ovarian
[36] = system: PC-3 prostate
[37] = system: RPMI-8226 leukemia
[38] = system: RXF 393 renal
[39] = system: SF-268 CNS
[40] = system: SF-295 CNS
[41] = system: SF-539 CNS
[42] = system: SK-MEL-28 melanoma
[43] = system: SK-MEL-5 melanoma
[44] = system: SK-OV-3 ovarian
[45] = system: SN12C renal
[46] = system: SNB-19 CNS
[47] = system: SNB-75 CNS
[48] = system: SW-620 colon
[49] = system: T-47D breast
[50] = system: TK-10 renal
[51] = system: U251 glioblastoma
[52] = system: UACC-257 melanoma
[53] = system: UACC-62 melanoma
[54] = system: UO-31 renal

Structure (SMILES): CCn1cc(-c2ccnc3[nH]c(-c4cccc(CN(C)C)c4)cc23)c(-c2ccc(NC(=O)N(C)C)cc2)n1
- GI50 [1]: 1.45 µM
- TGI [1]: 5.23 µM
- GI50 [2]: 1.18 µM
- TGI [2]: 9.52 µM
- GI50 [3]: 2.23 µM
- TGI [3]: 10.7 µM
- GI50 [4]: 0.293 µM
- TGI [4]: 1.77 µM
- GI50 [5]: 0.246 µM
- TGI [5]: 1.94 µM
- GI50 [6]: 2.71 µM
- TGI [6]: 14.6 µM
- GI50 [7]: 1.11 µM
- TGI [7]: 4.86 µM
- GI50 [8]: 1.69 µM
- TGI [8]: 4.2 µM
- GI50 [9]: 0.158 µM
- TGI [9]: 1.94 µM
- GI50 [10]: 1.94 µM
- TGI [10]: 9.96 µM
- GI50 [11]: < 0.01 µM
- TGI [11]: 1.37 µM
- GI50 [12]: 0.516 µM
- TGI [12]: 7.57 µM
- GI50 [13]: 0.449 µM
- TGI [13]: 2.72 µM
- GI50 [14]: 1.25 µM
- TGI [14]: 3.17 µM
- GI50 [15]: 1 µM
- TGI [15]: 2.31 µM
- GI50 [16]: 1.53 µM
- TGI [16]: 10.4 µM
- GI50 [17]: 1.09 µM
- TGI [17]: 2.42 µM
- GI50 [18]: 0.543 µM
- TGI [18]: 2.98 µM
- GI50 [19]: 0.422 µM
- TGI [19]: 1.92 µM
- GI50 [20]: 1.27 µM
- TGI [20]: 3.94 µM
- GI50 [21]: 1.51 µM
- TGI [21]: 3.34 µM
- GI50 [22]: 0.843 µM
- TGI [22]: 7.15 µM
- GI50 [23]: 1.32 µM
- TGI [23]: 7.09 µM
- GI50 [24]: 1.68 µM
- TGI [24]: 5.34 µM
- GI50 [25]: < 0.01 µM
- GI50 [26]: < 0.01 µM
- GI50 [27]: 0.186 µM
- TGI [27]: 1.73 µM
- GI50 [28]: 0.403 µM
- TGI [28]: 2.29 µM
- GI50 [29]: 3.81 µM
- TGI [29]: 15.6 µM
- GI50 [30]: < 0.01 µM
- TGI [30]: 1.34 µM
- GI50 [31]: 0.115 µM
- TGI [31]: 1.54 µM
- GI50 [32]: 17.6 µM
- TGI [32]: 42.4 µM
- GI50 [33]: 2.26 µM
- TGI [33]: 13.9 µM
- GI50 [34]: 1.68 µM
- TGI [34]: 4.91 µM
- GI50 [35]: 1.62 µM
- TGI [35]: 7.51 µM
- GI50 [36]: 1.68 µM
- TGI [36]: 7.38 µM
- GI50 [37]: < 0.01 µM
- TGI [37]: 1.43 µM
- GI50 [38]: 0.0454 µM
- TGI [38]: 2.74 µM
- GI50 [39]: < 0.01 µM
- TGI [39]: 0.192 µM
- GI50 [40]: 1.91 µM
- TGI [40]: 10 µM
- GI50 [41]: 0.327 µM
- TGI [41]: 2.04 µM
- GI50 [42]: 1.7 µM
- TGI [42]: 4.76 µM
- GI50 [43]: 1.34 µM
- TGI [43]: 2.89 µM
- GI50 [44]: 1.01 µM
- TGI [44]: 3.41 µM
- GI50 [45]: 0.344 µM
- TGI [45]: 3.8 µM
- GI50 [46]: 2.41 µM
- TGI [46]: 14.2 µM
- GI50 [47]: 0.483 µM
- TGI [47]: 2.22 µM
- GI50 [48]: 0.75 µM
- TGI [48]: 2.35 µM
- GI50 [49]: 1.42 µM
- TGI [49]: 9.45 µM
- GI50 [50]: 2.61 µM
- TGI [50]: 11.6 µM
- GI50 [51]: 1.35 µM
- TGI [51]: 2.83 µM
- GI50 [52]: 1.36 µM
- TGI [52]: 2.71 µM
- GI50 [53]: 0.755 µM
- TGI [53]: 4.34 µM
- GI50 [54]: 2.67 µM
- TGI [54]: 12 µM
